Measured values published in patent US7074789B2, “Kinase inhibitors” (Amgen Inc., priority 1999, dated 2006).
Where “and” joins values, the source holds several entries; their conditions need not be identical. Identical values can stand only once.

Experiments:
Assay type in all cases: biochemical
Lck = target: T1, Lck (Homo sapiens, UniProt P06239); experiment: Kinase inhibition assay (33P transfer), Lck; conditions: read-out: Lck-1
T1 construct: Kinases are expressed as either kinase domains or full length constructs; made in house
Outline: (§1)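 Radiometric readout: 33P incorporated into surface-bound poly(Glu,Tyr) 4:1 or poly(Arg,Ser) 3:1 is counted by liquid scintillation after a 0.5% phosphoric acid wash. Enzymes were GST or polyHis fusions (kinase domain or full length) from E. coli or High Five insect cells.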

Zap-70 = target: T2, Zap-70 (Homo sapiens, UniProt P43403); experiment: Kinase inhibition assay (33P transfer), Zap-70; conditions: read-out: Zap-1
T2 construct: Kinases are expressed as either kinase domains or full length constructs; made in house
T2 sequence (P43403 1-619): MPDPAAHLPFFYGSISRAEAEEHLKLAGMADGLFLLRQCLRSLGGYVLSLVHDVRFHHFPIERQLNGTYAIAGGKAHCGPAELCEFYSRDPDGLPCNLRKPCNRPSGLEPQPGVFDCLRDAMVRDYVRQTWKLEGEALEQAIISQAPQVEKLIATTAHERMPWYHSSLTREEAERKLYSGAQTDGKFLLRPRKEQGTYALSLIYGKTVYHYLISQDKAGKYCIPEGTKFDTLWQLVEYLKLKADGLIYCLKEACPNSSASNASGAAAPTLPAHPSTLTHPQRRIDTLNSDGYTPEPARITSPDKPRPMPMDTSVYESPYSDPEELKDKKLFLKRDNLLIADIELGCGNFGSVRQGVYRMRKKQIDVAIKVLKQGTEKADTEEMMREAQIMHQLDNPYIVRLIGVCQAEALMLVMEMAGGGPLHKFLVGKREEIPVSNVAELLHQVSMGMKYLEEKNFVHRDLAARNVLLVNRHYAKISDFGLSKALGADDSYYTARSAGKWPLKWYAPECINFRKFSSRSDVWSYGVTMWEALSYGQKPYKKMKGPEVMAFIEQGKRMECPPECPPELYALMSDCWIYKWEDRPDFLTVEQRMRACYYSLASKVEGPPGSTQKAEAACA
Outline: as §1

Itk = target: T3, Itk (Homo sapiens, UniProt Q08881); experiment: Kinase inhibition assay (33P transfer), Itk; conditions: read-out: Itk-1
T3 construct: Kinases are expressed as either kinase domains or full length constructs; made in house
T3 sequence (Q08881 1-620): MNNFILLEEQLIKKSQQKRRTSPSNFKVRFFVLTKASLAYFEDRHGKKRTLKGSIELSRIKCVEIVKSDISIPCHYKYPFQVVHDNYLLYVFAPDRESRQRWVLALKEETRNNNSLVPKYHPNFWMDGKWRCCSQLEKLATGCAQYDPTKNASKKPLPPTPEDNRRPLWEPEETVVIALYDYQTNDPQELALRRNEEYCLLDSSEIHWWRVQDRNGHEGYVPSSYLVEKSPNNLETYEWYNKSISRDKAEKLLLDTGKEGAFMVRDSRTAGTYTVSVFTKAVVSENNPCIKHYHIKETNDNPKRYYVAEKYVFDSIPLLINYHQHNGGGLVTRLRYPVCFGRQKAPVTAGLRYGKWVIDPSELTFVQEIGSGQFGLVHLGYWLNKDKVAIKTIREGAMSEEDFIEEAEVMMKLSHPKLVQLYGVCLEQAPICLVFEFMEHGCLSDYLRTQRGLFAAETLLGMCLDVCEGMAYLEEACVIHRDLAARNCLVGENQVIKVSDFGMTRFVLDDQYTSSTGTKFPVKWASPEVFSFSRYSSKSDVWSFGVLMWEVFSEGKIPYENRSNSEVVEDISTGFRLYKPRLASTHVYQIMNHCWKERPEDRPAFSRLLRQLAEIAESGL
Outline: (§2)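 Recombinant kinase domains or full-length GST- or His-tagged constructs, from E. coli or baculovirus/High Five cells, sometimes with regulatory polypeptides. Transfer of 33P from ATP to plate-bound poly(Glu,Tyr) 4:1 or poly(Arg,Ser) 3:1 counted by liquid scintillation after phosphoric acid wash; IC50 is the concentration halving incorporation.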

EGFR = target: T4, EGFR (Homo sapiens, UniProt P00533); experiment: Kinase inhibition assay (33P transfer), EGFR; conditions: Table 2, kinase inhibition class; read-out: EGFR-1
T4 construct: Kinases are expressed as either kinase domains or full length constructs; made in house
Outline: as §2

ErbB2 = target: T5, ErbB2 (Homo sapiens, UniProt P04626); experiment: Kinase inhibition assay (33P transfer), ErbB2; conditions: read-out: ErbB2-2
T5 construct: Kinases are expressed as either kinase domains or full length constructs; made in house
Outline: as §2

Kdr = target: T6, Kdr (Homo sapiens, UniProt P35968); experiment: Kinase inhibition assay (33P transfer), Kdr; conditions: read-out: KDR-1
T6 construct: Kinases are expressed as either kinase domains or full length constructs; made in house
Outline: as §1

c-Met = target: T7, c-Met (Homo sapiens, UniProt P08581); experiment: Kinase inhibition assay (33P transfer), c-Met; conditions: Table 2, kinase inhibition class; read-out: Met-1
T7 construct: Kinases are expressed as either kinase domains or full length constructs; made in house
Outline: as §2

AKT = target: T8, AKT (Homo sapiens, UniProt Q9Y243); experiment: Kinase inhibition assay (33P transfer), AKT; conditions: Table 2, kinase inhibition class; read-out: AKT3-1
T8 construct: Kinases are expressed as either kinase domains or full length constructs; made in house
Outline: as §1

IGFR-1 = target: T9, IGFR-1 (Homo sapiens, UniProt P08069); experiment: Kinase inhibition assay, IGFR-1 (Table 2); conditions: Table 2, kinase inhibition class
T9 construct: Kinases are expressed as either kinase domains or full length constructs; made in house

PDGFRB = target: T10, PDGFRB (Homo sapiens, UniProt P09619); experiment: Kinase inhibition assay (33P transfer), PDGFRB; conditions: read-out: PDGFRB-1
T10 construct: Kinases are expressed as either kinase domains or full length constructs; made in house
T10 sequence (P09619 33-1106, species assumed): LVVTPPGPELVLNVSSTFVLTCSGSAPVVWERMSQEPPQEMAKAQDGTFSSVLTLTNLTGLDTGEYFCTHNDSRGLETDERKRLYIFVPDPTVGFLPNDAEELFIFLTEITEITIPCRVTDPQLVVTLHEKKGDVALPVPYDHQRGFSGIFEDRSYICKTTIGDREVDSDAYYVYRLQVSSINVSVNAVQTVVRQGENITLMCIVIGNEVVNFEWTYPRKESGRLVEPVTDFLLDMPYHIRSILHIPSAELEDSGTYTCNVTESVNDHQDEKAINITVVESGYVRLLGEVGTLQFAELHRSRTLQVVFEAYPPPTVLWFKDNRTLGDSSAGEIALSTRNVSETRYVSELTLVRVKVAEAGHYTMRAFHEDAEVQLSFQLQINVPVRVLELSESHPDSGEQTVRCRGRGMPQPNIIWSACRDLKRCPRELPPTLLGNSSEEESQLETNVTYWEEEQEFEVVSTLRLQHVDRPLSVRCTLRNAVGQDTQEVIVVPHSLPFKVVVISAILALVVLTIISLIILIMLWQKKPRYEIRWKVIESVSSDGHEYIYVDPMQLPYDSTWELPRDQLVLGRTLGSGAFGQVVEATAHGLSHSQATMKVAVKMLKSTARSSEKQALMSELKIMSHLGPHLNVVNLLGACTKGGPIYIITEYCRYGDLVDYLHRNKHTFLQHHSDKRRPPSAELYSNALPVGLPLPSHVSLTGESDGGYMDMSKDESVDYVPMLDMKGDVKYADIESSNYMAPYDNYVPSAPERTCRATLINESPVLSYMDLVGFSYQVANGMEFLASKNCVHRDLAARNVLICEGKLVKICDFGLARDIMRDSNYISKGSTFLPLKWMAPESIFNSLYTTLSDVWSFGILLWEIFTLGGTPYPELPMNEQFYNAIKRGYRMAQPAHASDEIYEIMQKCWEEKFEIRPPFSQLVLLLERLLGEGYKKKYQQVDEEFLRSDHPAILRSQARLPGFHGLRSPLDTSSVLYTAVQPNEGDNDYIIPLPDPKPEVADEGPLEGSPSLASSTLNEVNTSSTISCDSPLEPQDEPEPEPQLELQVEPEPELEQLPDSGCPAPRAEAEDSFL

T4 sequence (P00533 25-1210, species assumed): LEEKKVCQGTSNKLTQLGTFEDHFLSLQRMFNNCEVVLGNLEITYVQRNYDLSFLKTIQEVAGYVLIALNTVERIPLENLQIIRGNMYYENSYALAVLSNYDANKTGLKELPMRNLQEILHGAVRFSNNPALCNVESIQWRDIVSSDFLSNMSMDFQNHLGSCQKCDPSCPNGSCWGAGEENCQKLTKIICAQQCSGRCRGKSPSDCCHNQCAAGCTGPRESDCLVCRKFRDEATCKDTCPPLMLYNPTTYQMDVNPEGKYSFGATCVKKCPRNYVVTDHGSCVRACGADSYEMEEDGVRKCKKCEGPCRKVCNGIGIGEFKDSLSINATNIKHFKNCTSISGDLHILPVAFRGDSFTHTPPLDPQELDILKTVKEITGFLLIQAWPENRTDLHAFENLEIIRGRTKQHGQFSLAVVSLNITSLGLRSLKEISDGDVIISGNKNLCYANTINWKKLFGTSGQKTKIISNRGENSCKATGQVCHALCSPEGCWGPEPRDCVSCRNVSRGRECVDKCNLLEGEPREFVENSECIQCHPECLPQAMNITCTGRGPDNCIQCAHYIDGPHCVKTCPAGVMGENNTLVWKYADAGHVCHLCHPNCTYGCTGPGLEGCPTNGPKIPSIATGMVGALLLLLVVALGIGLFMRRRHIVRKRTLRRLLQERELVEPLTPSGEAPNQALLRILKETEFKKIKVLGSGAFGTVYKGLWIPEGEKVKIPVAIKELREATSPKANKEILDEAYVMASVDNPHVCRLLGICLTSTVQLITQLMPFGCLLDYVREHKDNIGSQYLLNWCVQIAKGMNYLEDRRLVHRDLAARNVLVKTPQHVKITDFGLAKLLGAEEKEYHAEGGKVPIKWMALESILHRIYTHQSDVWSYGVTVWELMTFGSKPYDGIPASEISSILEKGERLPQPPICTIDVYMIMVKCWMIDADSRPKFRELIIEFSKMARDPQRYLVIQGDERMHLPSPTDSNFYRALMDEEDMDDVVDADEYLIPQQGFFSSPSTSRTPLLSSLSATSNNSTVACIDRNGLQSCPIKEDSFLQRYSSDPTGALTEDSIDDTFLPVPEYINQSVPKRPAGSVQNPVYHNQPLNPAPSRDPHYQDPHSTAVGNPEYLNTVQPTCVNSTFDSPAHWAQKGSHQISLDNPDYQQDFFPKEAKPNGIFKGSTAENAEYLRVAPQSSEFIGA
T7 sequence (P08581 25-1390): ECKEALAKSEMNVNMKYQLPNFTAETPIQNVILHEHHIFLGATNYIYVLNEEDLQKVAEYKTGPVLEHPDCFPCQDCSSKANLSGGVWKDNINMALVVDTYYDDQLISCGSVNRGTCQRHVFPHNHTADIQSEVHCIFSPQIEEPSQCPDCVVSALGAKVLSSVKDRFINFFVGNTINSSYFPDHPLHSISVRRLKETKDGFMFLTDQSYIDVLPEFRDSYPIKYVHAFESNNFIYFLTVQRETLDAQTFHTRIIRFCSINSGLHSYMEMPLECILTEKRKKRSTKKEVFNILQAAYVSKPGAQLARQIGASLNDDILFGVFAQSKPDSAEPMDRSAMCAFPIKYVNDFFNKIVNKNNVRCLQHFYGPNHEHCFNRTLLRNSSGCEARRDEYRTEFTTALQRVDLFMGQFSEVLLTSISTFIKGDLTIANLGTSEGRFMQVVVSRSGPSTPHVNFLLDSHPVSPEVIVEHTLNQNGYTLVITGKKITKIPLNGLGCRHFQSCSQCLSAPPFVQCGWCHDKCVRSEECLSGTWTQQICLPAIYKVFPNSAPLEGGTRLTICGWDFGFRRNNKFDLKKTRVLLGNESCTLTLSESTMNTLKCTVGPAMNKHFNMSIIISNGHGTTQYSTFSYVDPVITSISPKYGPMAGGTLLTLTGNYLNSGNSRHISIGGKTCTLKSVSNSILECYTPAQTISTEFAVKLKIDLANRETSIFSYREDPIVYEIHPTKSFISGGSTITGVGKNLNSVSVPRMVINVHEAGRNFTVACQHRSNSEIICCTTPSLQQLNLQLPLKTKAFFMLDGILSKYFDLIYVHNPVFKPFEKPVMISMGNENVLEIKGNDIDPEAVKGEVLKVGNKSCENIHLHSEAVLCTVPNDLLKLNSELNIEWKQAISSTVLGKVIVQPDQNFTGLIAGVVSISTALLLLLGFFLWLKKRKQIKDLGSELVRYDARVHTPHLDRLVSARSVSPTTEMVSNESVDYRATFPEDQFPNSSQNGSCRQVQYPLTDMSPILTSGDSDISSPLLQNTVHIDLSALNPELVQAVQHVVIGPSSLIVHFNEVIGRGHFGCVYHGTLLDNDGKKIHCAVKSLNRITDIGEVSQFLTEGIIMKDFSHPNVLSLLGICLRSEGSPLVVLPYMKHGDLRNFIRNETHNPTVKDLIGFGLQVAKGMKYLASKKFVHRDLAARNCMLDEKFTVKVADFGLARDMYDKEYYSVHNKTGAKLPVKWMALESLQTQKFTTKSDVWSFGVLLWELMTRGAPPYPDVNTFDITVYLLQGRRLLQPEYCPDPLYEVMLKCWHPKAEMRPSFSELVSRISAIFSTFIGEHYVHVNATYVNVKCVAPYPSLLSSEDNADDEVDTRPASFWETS
T9 sequence (P08069 31-1367): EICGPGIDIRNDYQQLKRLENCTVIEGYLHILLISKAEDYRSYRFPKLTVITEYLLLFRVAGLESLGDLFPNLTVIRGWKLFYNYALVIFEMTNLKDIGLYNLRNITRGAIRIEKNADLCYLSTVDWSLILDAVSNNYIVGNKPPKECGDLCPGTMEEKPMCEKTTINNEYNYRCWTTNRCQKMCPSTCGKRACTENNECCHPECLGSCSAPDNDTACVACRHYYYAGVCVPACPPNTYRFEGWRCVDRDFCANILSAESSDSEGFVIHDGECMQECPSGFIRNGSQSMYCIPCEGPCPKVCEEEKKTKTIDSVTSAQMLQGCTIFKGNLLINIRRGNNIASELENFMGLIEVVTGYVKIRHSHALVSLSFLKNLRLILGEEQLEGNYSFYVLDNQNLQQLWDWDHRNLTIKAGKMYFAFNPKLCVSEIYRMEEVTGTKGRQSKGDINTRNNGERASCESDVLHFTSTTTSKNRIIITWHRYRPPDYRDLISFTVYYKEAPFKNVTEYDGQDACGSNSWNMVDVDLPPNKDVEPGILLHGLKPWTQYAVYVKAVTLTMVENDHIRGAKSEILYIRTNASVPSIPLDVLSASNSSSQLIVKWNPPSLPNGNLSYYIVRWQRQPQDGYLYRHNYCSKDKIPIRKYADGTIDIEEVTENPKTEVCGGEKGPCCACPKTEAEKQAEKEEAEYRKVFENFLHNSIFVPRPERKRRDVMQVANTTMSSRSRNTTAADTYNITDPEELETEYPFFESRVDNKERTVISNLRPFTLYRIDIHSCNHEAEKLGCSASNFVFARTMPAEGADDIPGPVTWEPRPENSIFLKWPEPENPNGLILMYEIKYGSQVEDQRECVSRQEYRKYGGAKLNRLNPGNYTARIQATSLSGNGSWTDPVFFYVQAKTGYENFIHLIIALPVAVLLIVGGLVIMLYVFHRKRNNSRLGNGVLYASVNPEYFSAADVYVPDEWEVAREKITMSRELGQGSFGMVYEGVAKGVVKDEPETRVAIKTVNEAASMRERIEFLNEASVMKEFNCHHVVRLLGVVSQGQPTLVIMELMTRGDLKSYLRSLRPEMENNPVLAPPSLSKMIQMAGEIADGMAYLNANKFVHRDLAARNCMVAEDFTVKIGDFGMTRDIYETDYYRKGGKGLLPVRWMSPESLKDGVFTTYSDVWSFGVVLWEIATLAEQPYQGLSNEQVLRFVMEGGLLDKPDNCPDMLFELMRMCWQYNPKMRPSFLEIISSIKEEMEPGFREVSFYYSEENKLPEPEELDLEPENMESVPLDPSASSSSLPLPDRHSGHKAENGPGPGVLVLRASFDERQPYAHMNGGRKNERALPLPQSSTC

Structure (SMILES) | IC50 (Lck) | IC50 (Zap-70) | IC50 (Itk) | IC50 (EGFR) | IC50 (ErbB2) | IC50 (Kdr) | IC50 (c-Met) | IC50 (AKT) | IC50 (IGFR-1) | IC50 (PDGFRB)
CN(c1cccc(Cl)c1)c1ncnc(Nc2ccc(C(F)(F)F)cc2)n1 [Compound 744] | > 11.8 µM | > 11.8 µM | > 11.8 µM | 1.05 to 6.32 µM | > 11.8 µM | > 11.8 µM | > 11.8 µM | > 11.8 µM | > 11.8 µM | > 11.8 µM
CC(=O)NS(=O)(=O)c1ccc(Nc2ncnc(N(C)c3cccc(Cl)c3)n2)cc1 [Compound 751] | 5.54 to 8.09 µM | > 10.4 µM | > 10.4 µM | < 0.924 µM | > 10.4 µM | 0.924 to 5.54 µM | > 10.4 µM | > 10.4 µM | > 10.4 µM | 0.924 to 5.54 µM
COc1cccc(Nc2ncnc(N(C)c3cccc(Cl)c3)n2)c1 [Compound 741] | 7.02 to 10.2 µM | > 13.2 µM | > 13.2 µM | < 1.17 µM | 1.17 to 7.02 µM | > 13.2 µM | > 13.2 µM | > 13.2 µM | > 13.2 µM | 7.02 to 10.2 µM
COc1cc(Nc2ncnc(-n3c(NC4CCc5ccccc54)nc4ccccc43)n2)cc(OC)c1OC (centres unmarked) [Compound 1044] | 4.71 to 6.87 µM | > 8.83 µM | > 8.83 µM | 4.71 to 6.87 µM | 0.785 to 4.71 µM | 0.785 to 4.71 µM | > 8.83 µM | > 8.83 µM | > 8.83 µM | 6.87 to 8.83 µM
Cc1ccc2c(c1)CCCN2c1ncnc(Nc2cccc(CO)c2)n1 [Compound 770] | < 1.15 µM | > 13 µM | > 13 µM | < 1.15 µM | < 1.15 µM | 1.15 to 6.91 µM | < 1.15 µM | > 13 µM | 10.1 to 13 µM | < 1.15 µM
COc1cc(Nc2ncnc(-n3c(NCc4ccc5c(c4)OCO5)nc4ccccc43)n2)cc(OC)c1OC [Compound 595] | 6.63 to 8.53 µM | > 8.53 µM | > 8.53 µM | > 8.53 µM | 0.758 to 4.55 µM | 0.758 to 4.55 µM | > 8.53 µM | 4.55 to 6.63 µM | > 8.53 µM | 6.63 to 8.53 µM
COc1cc(Nc2ncnc(Nc3cc(C(F)(F)F)ccc3F)n2)cc(OC)c1OC [Compound 618] | 0.91 to 5.46 µM | > 10.2 µM | 7.97 to 10.2 µM | < 0.91 µM | 5.46 to 7.97 µM | 0.91 to 5.46 µM | 5.46 to 7.97 µM | 7.97 to 10.2 µM | < 0.91 µM | 0.91 to 5.46 µM
CN(c1cccc(Cl)c1)c1ncnc(N[C@@H]2CCN(Cc3ccccc3)C2)n1 [Compound 755] | > 11.4 µM | > 11.4 µM | > 11.4 µM | > 11.4 µM | > 11.4 µM | > 11.4 µM | > 11.4 µM | > 11.4 µM | > 11.4 µM | > 11.4 µM
Cc1ccc2c(c1)CCCN2c1ncnc(NCCc2cccnc2)n1 [Compound 775] | > 13 µM | > 13 µM | > 13 µM | > 13 µM | > 13 µM | > 13 µM | > 13 µM | > 13 µM | > 13 µM | > 13 µM
COc1cc(Nc2ncnc(-n3c(NCc4ccc(C)cc4C)nc4ccccc43)n2)cc(OC)c1OC [Compound 584] | 0.782 to 4.69 µM | > 8.8 µM | > 8.8 µM | 4.69 to 6.84 µM | 4.69 to 6.84 µM and 0.782 to 4.69 µM | 0.782 to 4.69 µM | 6.84 to 8.8 µM | > 8.8 µM | > 8.8 µM | > 8.8 µM
CN(c1cccc(Cl)c1)c1ncnc(Nc2ccc(F)c(C(F)(F)F)c2)n1 [Compound 742] | > 11.3 µM | > 11.3 µM | > 11.3 µM | 1.01 to 6.03 µM | > 11.3 µM | > 11.3 µM | > 11.3 µM | > 11.3 µM | > 11.3 µM | > 11.3 µM
